# Laboratory results: BindingDB's records for doi:10.1016/0024-3205(85)90028-1 (Universit&Eacute, 1985)
# Structures can show the parent of a compound that is named as a salt.
# Biological target: D(1A) dopamine receptor (Rattus norvegicus, UniProt P18901)
# Sequence (P18901 whole entry): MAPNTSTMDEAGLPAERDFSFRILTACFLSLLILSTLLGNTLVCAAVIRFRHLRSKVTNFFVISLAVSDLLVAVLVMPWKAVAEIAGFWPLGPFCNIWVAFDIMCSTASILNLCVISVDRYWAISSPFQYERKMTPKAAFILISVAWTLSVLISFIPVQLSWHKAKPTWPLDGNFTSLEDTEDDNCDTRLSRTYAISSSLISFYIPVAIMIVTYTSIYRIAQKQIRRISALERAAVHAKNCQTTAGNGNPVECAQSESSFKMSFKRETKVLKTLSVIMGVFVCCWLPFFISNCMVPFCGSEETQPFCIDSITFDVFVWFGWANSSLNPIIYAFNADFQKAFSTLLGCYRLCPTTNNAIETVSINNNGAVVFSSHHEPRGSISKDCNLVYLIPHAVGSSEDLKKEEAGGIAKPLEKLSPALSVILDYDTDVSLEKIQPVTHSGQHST
row,Structure (SMILES),Ki [µM]
1,O=c1[nH]c2ccccc2n1CCCN1CCC(n2c(=O)[nH]c3cc(Cl)ccc32)CC1,> 10
2,NC1CCc2cc(O)c(O)cc2C1 (stereo not given),5.12
3,"O=c1[nH]c2ccccc2n1C1CCN(CCCC(c2ccc(F)cc2)c2ccc(F)cc2)CC1 [1-(1-(4,4-bis(4-fluorophenyl)butyl)piperidin-4-yl)-1H-benzo[d]imidazol-2(3H)-one]",1.42
4,OCCN1CCN(CCCN2c3ccccc3Sc3ccc(C(F)(F)F)cc32)CC1 [2-[4-[3-[2-(trifluoromethyl)phenothiazin-10-yl]propyl]piperazin-1-yl]ethanol;hydrochloride],0.0045
5,"O=C(c1ccc(F)cc1)C1CCN(CCn2c(=O)[nH]c3ccccc3c2=O)CC1 [3-(2-{4-[(4-fluorophenyl)carbonyl]piperidin-1-yl}ethyl)-1,2,3,4-tetrahydroquinazoline-2,4-dione]",0.2
6,OCCN1CCN(CCCN2c3ccccc3Sc3ccc(Cl)cc32)CC1 [4-[3-(2-chlorophenothiazin-10-yl)propyl]-1-piperazineethanol],0.044
7,CN1CCN(CC/C=C2/c3ccccc3Sc3ccc(S(=O)(=O)N(C)C)cc32)CC1 [MLS000028463],1.52
8,"CC(CN1c2ccccc2Sc2ccccc21)N(C)C (stereo not drawn) [N,N,alpha-trimethyl-10H-phenothiazine-10-ethanamine]",1.78
9,NCCc1c[nH]c2ccc(O)cc12 [[3H]-5-HT],5
10,c1ccc2c(c1)Nc1ccccc1S2 [phenothiazine],> 10
